In patent US20170349860A1, “ENZYME STABILIZERS” (Henkel AG & Co. KGaA, priority 2014, published 2017):

System: protease
Assay: Storage stability of protease in detergent formulation: residual proteolytic activity by AAPF-pNA assay
Type: biochemical
Details: 1% protease, 1% (w/w) candidate compound in detergent formulation; stored 8 weeks at 30° C.; AAPF-pNA substrate, 25° C., pH 8.6, 410 nm
Procedure: The storage stability of protease-containing detergents and cleaning agents was tested for use as enzyme stabilizers in the presence of candidate compounds. For this purpose, the candidate compounds were formulated in the presence of up to 1% (w/w) 1,2-propanediol in a detergent or cleaning agent formulation (see Table 2). The protease (1% PUR) was then added to the formulation, and the formulation stored for 8 weeks at 30° C.
In parallel batches, the proteolytic activity of 1% protease was determined in 4% PG (1,2-propanediol), 85% matrix (see Table 1), then, each following incubation with 1% of the candidate compound (specified in w/w; QS 100% with water) determined in half of the batches in the formulation as indicated in Table 1 by the release of the chromophore para-nitroaniline from the succinyl-alanine-alanine-proline-phenylalanine para-nitroanilide substrate (AAPF-pNA; Bachem L-1400). The release of the pNA caused an increase in the absorbance at 410 nm, the progress over time of which is a measure of enzymatic activity. […]
For evaluation, the initial values for the proteolytic activity of the agent in question were compared to the values determined after storage. […] The stabilizing effect of each tested compound is thus measured as a relative percentage increase in the residual protease activity.

Q: `O=C(O)CCCCCNc1nc(NCCCCCC(=O)O)nc(NCCCCCC(=O)O)n1` [2,4,6-Tri-(6-aminocaproic acid)-1,3,5-triazine] was tested. Which “Relative residual activity after incubation with KV” value did it give?
A: 136%
